Read-outs that look alike come from different tables or passages of the source.
Assays:
human NaV1.1 = human NaV1.1 (Homo sapiens (Human), UniProt P35498); assay: Sodium Influx Assay (Flux), NaV1.1; type: cell-based; conditions: Trex HEK293 cells, ANG2 dye; arithmetic mean
human NaV1.6 = human NaV1.6 (Homo sapiens (Human), UniProt Q9UQD0); assay: Sodium Influx Assay (Flux), NaV1.6
human NaV1.5 = human NaV1.5 (Homo sapiens (Human), UniProt Q14524); assay: cell-based
human NaV1.1 (SCN1A) = human NaV1.1 (SCN1A) (Homo sapiens (Human), UniProt P35498); assay: Electrophysiological Assay (EP, patch voltage clamp), NaV1.1; type: cell-based; conditions: HEK-293 cells, whole-cell patch clamp, inactivated state; arithmetic mean
Description: Sodium currents were measured using the patch clamp technique in the whole-cell configuration using either a PatchXpress automated voltage clamp or manually using an Axopatch 200B (Axon Instruments) or Model 2400 (A-M systems) amplifier. […] In some studies, the external sodium was reduced by equimolar replacement with choline. […] All recordings were performed at ambient temperature in a bath chamber with a volume of 150 μL. Control sodium currents were measured in 0.5% DMSO. Controls and representative compounds of the invention were applied to the recording chamber through a 4-pinch or 8-pinch valve bath perfusion system manufactured by ALA Scientific Instruments.
Series resistance compensation was applied (60-80%). […] All statistics in this study are given as mean±SD.
The membrane potential was maintained at a voltage where inactivation of the channel is complete. The voltage is then stepped back to a very negative (Vhold=−150 mV) voltage for 20 ms and then a test pulse is applied to quantify the compound block. […] The percent decrease in sodium current following wash-on of compound was taken as the percent block of sodium channels.

human NaV1.6 (SCN8A) = human NaV1.6 (SCN8A) (Homo sapiens (Human), UniProt Q9UQD0); assay: Electrophysiological Assay (EP, patch voltage clamp), NaV1.6; type: cell-based; conditions: HEK-293 cells, whole-cell patch clamp, inactivated state; arithmetic mean
Excerpt: Patch voltage clamp electrophysiology allows for the direct measurement and quantification of block of voltage-gated sodium channels (Nav's), and allows the determination of the time- and voltage-dependence of block which has been interpreted as differential binding to the resting, open, and inactivated states of the sodium channel (Hille, B., Journal of General Physiology (1977), 69: 497-515).
Nav1.1, Nav1.5 and Nav1.6 cDNAs (NM_001165964 (SCN1A), NM_000335 (SCN5A) and NM_014191 (SCN8A), respectively) were stably expressed in HEK-293 cells.
Sodium currents were measured using the patch clamp technique in the whole-cell configuration using either a PatchXpress automated voltage clamp or manually using an Axopatch 200B (Axon Instruments) or Model 2400 (A-M systems) amplifier. […] Control sodium currents were measured in 0.5% DMSO. […]
Currents were recorded at 40 kHz sampling frequency, filtered at […], and stored using a Digidata-1322A analogue/digital interface with the pClamp software (Axon Instruments). […]
The membrane potential was maintained at a voltage where inactivation of the channel is complete. The voltage is then stepped back to a very negative (Vhold=−150 mV) voltage for 20 ms and then a test pulse is applied to quantify the compound block. […]

[1] = read-out: Flux NaV1.6 IC50, Trex HEK293 cells, ANG2 dye, arithmetic mean

Sequence of human NaV1.5 (Q14524 other isoform, or with tags, fused parts or gaps): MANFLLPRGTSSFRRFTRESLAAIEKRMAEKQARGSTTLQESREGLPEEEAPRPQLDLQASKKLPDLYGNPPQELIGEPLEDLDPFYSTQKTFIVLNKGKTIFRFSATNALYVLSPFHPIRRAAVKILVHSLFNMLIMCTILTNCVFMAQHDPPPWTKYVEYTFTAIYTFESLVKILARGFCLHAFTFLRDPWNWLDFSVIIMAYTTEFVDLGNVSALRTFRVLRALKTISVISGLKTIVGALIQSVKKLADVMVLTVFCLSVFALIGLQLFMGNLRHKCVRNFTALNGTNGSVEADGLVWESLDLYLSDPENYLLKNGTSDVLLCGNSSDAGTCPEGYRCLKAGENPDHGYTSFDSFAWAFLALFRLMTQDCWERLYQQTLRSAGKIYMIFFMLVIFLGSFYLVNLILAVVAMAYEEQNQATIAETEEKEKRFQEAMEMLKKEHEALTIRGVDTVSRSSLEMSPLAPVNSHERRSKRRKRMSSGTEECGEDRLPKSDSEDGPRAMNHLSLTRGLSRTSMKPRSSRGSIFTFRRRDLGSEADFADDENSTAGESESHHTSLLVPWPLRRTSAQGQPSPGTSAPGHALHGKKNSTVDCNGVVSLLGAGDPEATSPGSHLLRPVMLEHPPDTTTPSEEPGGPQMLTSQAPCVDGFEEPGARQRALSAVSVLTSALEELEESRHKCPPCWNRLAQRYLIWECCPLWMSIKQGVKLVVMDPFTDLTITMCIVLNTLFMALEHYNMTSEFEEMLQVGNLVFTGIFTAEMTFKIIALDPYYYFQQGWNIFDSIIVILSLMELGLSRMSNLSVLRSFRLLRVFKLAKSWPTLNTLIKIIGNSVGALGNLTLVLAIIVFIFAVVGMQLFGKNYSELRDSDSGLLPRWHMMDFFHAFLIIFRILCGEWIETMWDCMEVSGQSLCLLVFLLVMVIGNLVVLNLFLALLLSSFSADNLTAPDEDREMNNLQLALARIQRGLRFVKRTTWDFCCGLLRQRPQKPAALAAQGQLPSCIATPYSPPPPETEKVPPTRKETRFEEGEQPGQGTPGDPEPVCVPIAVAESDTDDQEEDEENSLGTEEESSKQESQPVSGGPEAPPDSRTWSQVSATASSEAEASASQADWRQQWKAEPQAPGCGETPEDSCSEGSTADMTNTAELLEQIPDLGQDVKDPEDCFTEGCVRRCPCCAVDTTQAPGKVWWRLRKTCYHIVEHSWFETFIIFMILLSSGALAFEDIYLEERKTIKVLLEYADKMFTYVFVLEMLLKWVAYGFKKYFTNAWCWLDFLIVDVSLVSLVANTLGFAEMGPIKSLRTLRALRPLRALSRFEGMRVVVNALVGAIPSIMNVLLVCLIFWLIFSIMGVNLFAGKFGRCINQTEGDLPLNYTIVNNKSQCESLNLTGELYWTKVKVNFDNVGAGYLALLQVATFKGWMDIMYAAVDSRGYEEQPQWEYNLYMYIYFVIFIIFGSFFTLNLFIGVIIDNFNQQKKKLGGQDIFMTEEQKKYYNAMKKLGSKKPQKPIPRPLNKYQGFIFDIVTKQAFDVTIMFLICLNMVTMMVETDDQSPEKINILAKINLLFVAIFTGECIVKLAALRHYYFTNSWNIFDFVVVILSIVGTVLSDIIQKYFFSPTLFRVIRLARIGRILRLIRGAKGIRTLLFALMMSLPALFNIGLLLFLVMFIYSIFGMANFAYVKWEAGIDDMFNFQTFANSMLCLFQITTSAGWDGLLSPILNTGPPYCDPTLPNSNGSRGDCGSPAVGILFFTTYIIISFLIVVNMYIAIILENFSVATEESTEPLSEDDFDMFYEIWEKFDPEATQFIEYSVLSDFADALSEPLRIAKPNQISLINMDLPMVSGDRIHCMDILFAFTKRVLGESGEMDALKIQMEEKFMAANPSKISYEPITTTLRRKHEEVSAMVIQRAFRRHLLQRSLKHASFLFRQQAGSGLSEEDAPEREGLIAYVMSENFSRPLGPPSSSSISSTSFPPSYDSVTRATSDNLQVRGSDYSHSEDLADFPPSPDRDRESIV
Sequence of human NaV1.6 (SCN8A) (Q9UQD0 whole entry): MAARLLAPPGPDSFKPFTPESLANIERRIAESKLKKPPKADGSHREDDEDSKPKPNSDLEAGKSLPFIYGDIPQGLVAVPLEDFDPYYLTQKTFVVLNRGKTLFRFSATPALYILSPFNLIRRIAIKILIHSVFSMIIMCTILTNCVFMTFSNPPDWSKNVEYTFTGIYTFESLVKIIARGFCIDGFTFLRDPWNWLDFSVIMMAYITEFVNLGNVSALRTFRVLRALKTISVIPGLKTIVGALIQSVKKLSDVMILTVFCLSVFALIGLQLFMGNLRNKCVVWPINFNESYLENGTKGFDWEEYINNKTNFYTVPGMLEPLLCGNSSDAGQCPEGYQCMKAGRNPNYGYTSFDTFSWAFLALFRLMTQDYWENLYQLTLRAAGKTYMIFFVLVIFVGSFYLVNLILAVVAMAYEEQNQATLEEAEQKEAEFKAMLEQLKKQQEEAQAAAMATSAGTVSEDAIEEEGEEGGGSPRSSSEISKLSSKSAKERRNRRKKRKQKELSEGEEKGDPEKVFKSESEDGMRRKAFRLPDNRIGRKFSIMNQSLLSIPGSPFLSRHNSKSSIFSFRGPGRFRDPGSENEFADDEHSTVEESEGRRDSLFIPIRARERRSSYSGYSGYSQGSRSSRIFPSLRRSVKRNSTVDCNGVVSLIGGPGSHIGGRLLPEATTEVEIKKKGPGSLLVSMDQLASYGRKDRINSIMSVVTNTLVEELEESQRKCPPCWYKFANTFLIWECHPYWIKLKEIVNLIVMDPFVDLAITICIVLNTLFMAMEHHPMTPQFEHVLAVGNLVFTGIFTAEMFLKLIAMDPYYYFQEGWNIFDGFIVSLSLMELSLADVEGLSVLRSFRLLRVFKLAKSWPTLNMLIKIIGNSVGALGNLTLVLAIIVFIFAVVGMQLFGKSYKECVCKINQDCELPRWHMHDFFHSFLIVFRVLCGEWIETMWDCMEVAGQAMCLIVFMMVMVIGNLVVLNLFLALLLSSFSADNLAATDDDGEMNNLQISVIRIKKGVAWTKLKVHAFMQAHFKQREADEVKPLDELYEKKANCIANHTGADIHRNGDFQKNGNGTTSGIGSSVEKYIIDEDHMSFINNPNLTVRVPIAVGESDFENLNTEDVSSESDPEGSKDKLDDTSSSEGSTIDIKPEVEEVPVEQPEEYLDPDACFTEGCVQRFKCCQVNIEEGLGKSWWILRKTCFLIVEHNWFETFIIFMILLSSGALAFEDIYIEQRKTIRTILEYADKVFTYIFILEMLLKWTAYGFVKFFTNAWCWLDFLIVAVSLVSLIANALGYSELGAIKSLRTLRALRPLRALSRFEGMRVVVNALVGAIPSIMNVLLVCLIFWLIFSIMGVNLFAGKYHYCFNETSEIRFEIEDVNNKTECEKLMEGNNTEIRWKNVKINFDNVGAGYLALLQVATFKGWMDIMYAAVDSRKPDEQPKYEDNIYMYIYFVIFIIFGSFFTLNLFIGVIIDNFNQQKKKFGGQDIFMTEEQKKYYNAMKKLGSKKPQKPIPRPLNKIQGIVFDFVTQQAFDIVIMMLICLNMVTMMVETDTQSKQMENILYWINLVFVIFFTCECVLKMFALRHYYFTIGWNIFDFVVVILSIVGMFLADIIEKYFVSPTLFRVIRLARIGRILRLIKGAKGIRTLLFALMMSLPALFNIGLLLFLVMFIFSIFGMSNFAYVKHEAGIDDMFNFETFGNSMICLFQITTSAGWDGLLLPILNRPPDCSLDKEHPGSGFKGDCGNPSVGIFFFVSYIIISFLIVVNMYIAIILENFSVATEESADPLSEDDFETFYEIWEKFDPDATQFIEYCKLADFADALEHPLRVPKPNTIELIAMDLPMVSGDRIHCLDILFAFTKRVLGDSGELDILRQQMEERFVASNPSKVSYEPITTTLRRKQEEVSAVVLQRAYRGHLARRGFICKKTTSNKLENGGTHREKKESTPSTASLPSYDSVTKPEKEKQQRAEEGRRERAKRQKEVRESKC

Row | Structure (SMILES) | IC50 (human NaV1.1) | IC50 (human NaV1.6) | IC50 (human NaV1.5) | IC50 (human NaV1.6; [1]) | IC50 (human NaV1.1 (SCN1A)) | IC50 (human NaV1.6 (SCN8A))
1 | C[C@@H](c1ccccc1)N1CC[C@H](N(C)c2cc(F)c(S(=O)(=O)Nc3cccc(F)n3)cc2Cl)C1 [Example 43, 2,2,2-trifluoroacetate] | 7.87 µM | 1.89 µM | 17.1 µM |  |  | 
2 | C[C@@H]1C[C@@H](Oc2ccc(S(=O)(=O)Nc3nccs3)cc2Cl)CCN1Cc1ccccc1 (relative stereo) [Example 73, 4-((trans-1-benzyl-2-methylpiperidin-4-yl)oxy)-3-chloro-N-(thiazol-2-yl)benzenesulfonamide] | 5.85 µM | 1.88 µM | 13.1 µM |  |  | 
3 | O=S(=O)(Nc1cscn1)c1ccc(O[C@@H]2C[C@H]3CC[C@@H](C2)N3Cc2cccc(C(F)F)c2)c(Cl)c1 [Example 256, 3-chloro-4-(((1R,3s,5S)-8-(3-(difluoromethyl)benzyl)-8-azabicyclo[3.2.1]octan-3-yl)oxy)-N-(thiazol-4-yl)benzenesulfonamide] | 4.41 µM |  |  | 3.31 µM |  | 
4 | Cc1cccc(CN2CC[C@@H](Oc3ccc(S(=O)(=O)Nc4nccs4)cc3Cl)[C@H](C)C2)c1 (relative stereo) [Example 9B, 3-chloro-4-((trans-3-methyl-1-(3-methylbenzyl)piperidin-4-yl)oxy)-N-(thiazol-2-yl)benzenesulfonamide] |  | 0.874 µM | 8.75 µM |  |  | 
5 | C[C@@H]1CN(Cc2ccccc2)C[C@@H]1Nc1ccc(S(=O)(=O)Nc2nccs2)cc1Cl (relative stereo) [Example 75, 4-((cis-1-benzyl-4-methylpyrrolidin-3-yl)amino)-3-chloro-N-(thiazol-2-yl)benzenesulfonamide] | 4.19 µM | 0.661 µM | 8.99 µM |  |  | 
6 | C[C@H]1CN(Cc2ccccc2)C[C@@H]1Nc1ccc(S(=O)(=O)Nc2nccs2)cc1Cl (relative stereo) [Example 74, 4-((trans-1-benzyl-4-methylpyrrolidin-3-yl)amino)-3-chloro-N-(thiazol-2-yl)benzenesulfonamide] | 1.54 µM | 0.167 µM | 8.67 µM |  | 1.03 µM | 0.025 µM
7 | C[C@@H]1[C@H](N(C)c2cc(F)c(S(=O)(=O)Nc3cscn3)cc2Cl)CCN1Cc1ccccc1 (racemic) [Example 309, rac-4-(((2R,3R)-1-benzyl-2-methylpyrrolidin-3-yl)(methyl)amino)-5-chloro-2-fluoro-N-(thiazol-4-yl)benzenesulfonamide] | 8.44 µM |  |  | 6.86 µM |  | 
8 | C[C@H]1C[C@@H](Oc2ccc(S(=O)(=O)Nc3nccs3)cc2Cl)CCN1Cc1ccccc1 (relative stereo) [Example 72, 4-((cis-1-benzyl-2-methylpiperidin-4-yl)oxy)-3-chloro-N-(thiazol-2-yl)benzenesulfonamide] | 6.81 µM | 6.07 µM | 13.5 µM |  |  | 
9 | Cc1cccc(CN2CC[C@H](Oc3ccc(S(=O)(=O)Nc4nccs4)cc3Cl)[C@H](C)C2)c1 (relative stereo) [Example 9A, 3-chloro-4-((cis-3-methyl-1-(3-methylbenzyl)piperidin-4-yl)oxy)-N-(thiazol-2-yl)benzenesulfonamide] |  | 1.75 µM |  |  |  | 
